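Cultured in 96-well plates, cells were exposed to test compound for 48 hours across five concentrations. At the GI50, growth is halved. The concentration for full growth arrest is given as TGI.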
What was measured:
Assay in all cases: NCI anticancer screen, dose series, 48 h
[1] = system: DLD-1 colon
[2] = system: DMS 273 small cell lung
[3] = system: HOP-18 NSCLC
[4] = system: KM20L2 colon
[5] = system: SNB-78 CNS
[6] = system: DU-145 prostate
[7] = system: HS 578T breast
[8] = system: NCI/ADR-RES ovarian
[9] = system: PC-3 prostate
[10] = system: T-47D breast

Row | Compound | TGI [1] [µM] | TGI [2] [µM] | TGI [4] [µM] | TGI [5] [µM] | GI50 [6] [µM] | TGI [6] [µM] | GI50 [7] [µM] | TGI [7] [µM] | GI50 [8] [µM] | TGI [8] [µM] | GI50 [9] [µM] | TGI [9] [µM] | GI50 [10] [µM] | TGI [10] [µM] | also measured
1 | CCCc1[nH]nc(CCC(=O)N(Cc2ccccc2)Cc2ccccc2)c1CC | > 100 | > 100 | > 100 | – | – | – | – | – | – | – | – | – | – | – | TGI [3]: > 100 µM
2 | CC(=O)NC(CCCNCc1ccccc1)C(=O)NCc1ccccc1 (configuration not stated) | > 100 | > 100 | > 100 | > 100 | – | – | – | – | – | – | – | – | – | – | –
3 | CNS(=O)(=O)NN(C)S(=O)(=O)c1ccc(F)cc1 | > 100 | > 100 | > 100 | – | – | – | – | – | – | – | – | – | – | – | TGI [3]: > 100 µM
4 | O=C([O-])c1ccccc1Nc1ccccn1.O=C([O-])c1ccccc1Nc1ccccn1.[Ni+2] | > 100 | – | – | > 100 | – | – | – | – | – | – | – | – | – | – | GI50 [1]: > 100 µM; GI50 [5]: 91.8 µM
5 | COC(=O)CCC(NC(=S)N/N=C(\C)c1nccs1)C(=O)OC (configuration not stated) | > 100 | – | > 100 | > 100 | – | – | – | – | – | – | – | – | – | – | TGI [3]: > 100 µM
6 | COC(=O)c1csnn1 | – | > 100 | > 100 | – | – | – | – | – | – | – | – | – | – | – | –
7 | C=CCC1([C@H](C)[C@@H](OC(C)=O)c2cc(OC)c(OC)c(OC)c2)C[C@@H](OC)CCC1=O (some centres not stated) | 37.5 | – | 24.6 | – | – | – | – | – | – | – | – | – | – | – | –
8 | Cc1cc(N(CCC#N)S(=O)(=O)c2ccccc2)ccc1/C=C1N=C(/C=C/c2ccccc2)OC\1=O | > 100 | > 100 | > 100 | > 100 | – | – | – | – | – | – | – | – | – | – | –
9 | N#CC(C(=O)/C(=N/NC(=O)c1ccccc1O)C(C#N)c1ccc(Cl)cc1)c1ccc(Cl)cc1 (configuration not stated) | 33 | – | 27.2 | > 100 | – | – | – | – | – | – | – | – | – | – | TGI [3]: 23.6 µM
10 | O=Cc1cn(C(=O)c2ccccc2)c2ccccc12 | > 100 | > 100 | > 100 | > 100 | – | – | – | – | – | – | – | – | – | – | –
11 | COC(=O)CCC1CCc2c(OC)ccc(O)c2C1=O (configuration not stated) | > 100 | > 100 | – | > 100 | – | – | – | – | – | – | – | – | – | – | –
12 | C[N+](C)(C)CC(=O)N/N=C(/Cc1nc2c3c(ccc2[nH]c1=O)C(=O)c1ccccc1C3=O)C(=O)Nc1ccc(Cl)c(Cl)c1 | > 100 | – | > 100 | – | – | – | – | – | – | – | – | – | – | – | –
13 | COc1ccc2c(c1)C(O)(C(F)(F)F)c1cc(C(=O)C(F)(F)F)c3ccccc3c1N2 (configuration not stated) | 22.4 | 23.1 | 13.7 | – | – | – | – | – | – | – | – | – | – | – | TGI [3]: 33.3 µM
14 | Cc1c(C(=O)/C=C/c2csc3ccccc23)[n+](=O)c2ccccc2n1[O-] | – | – | – | – | 1.46 | 2.78 | 1.56 | 5.22 | 2.01 | 5 | 1.71 | 4.3 | 1.92 | 5.81 | –
15 | CN(C)S(=O)(=O)c1ccc(NC(=O)COC(=O)c2ccc(S(=O)(=O)N3CCCCC3)cc2)cc1 | – | – | – | – | > 100 | > 100 | > 100 | > 100 | > 100 | > 100 | > 100 | > 100 | > 100 | > 100 | –
16 | O=C1c2ccccc2-c2c1c1ccccc1c(=O)n2CCCNCCCNCCCn1c2c(c3ccccc3c1=O)C(=O)c1ccccc1-2 | – | – | – | – | 0.0295 | 0.181 | 0.0984 | 1.28 | 0.319 | 1.98 | 0.0397 | 0.142 | 1.64 | 6.4 | –
17 | CC1(C)SC2C(NC(=O)C(N)c3ccccc3)C(=O)N2C1C(=O)O (configuration not stated) | – | – | – | – | – | > 100 | – | > 100 | – | > 100 | – | > 100 | – | > 100 | –
18 | ClCCn1c(CCl)nc2ccc(Cl)cc21 | – | – | – | – | 1.75 | 3.22 | 2.06 | 7.03 | 1.21 | 4.36 | 1.58 | 3.39 | 1.86 | 4.19 | –
19 | C=C1C(=O)O[C@H]2[C@H]1CC/C(COC(=O)NCc1ccccc1OC)=C\CC[C@@]1(C)O[C@@H]21 | – | – | – | – | 0.698 | 1.98 | 3.4 | 19 | 2.26 | 6.12 | 3.13 | 10.6 | 2.01 | 5.7 | –
20 | CC1=NCCc2c1[nH]c1cc(O)ccc21 | > 100 | – | > 100 | > 100 | – | – | – | – | – | – | – | – | – | – | TGI [3]: > 100 µM
21 | COc1cccc(/C=C/C(=O)c2cccc(Nc3nc(Nc4ccccc4)nc(Nc4ccccc4)n3)c2)c1 | – | – | – | – | 19.9 | > 100 | 15.8 | 61.7 | 27.3 | > 100 | 5.21 | > 67.2 | 6.15 | > 79.8 | –
22 | CN1CCN(CCc2cccc(C(=O)c3cnn(-c4ccc(F)cc4)c3N)c2)CC1 | – | – | – | – | > 25 | > 25 | > 25 | > 25 | > 25 | > 25 | > 25 | > 25 | > 25 | > 25 | –
23 | CCN(CC)c1ccc(C(=C2C=CC(=[N+](CC)Cc3cccc(S(=O)(=O)O)c3)C=C2)c2ccc(N(CC)Cc3cccc(S(=O)(=O)O)c3)cc2)cc1 | – | – | – | – | 4.74 | > 100 | 2.86 | > 30.5 | > 100 | > 100 | 6.87 | > 66.3 | 3.14 | > 29.3 | –
24 | O=c1c2c([nH]c3cc4c(cc13)OCO4)-c1ccccc1CC2 | > 100 | > 100 | > 100 | – | – | – | – | – | – | – | – | – | – | – | –

Source: PubChem BioAssay (NCI)
